{"source": "patent EP0529395A2", "about": "“Benzamide multidrug resistance reversing agents” (Bristol-Myers Squibb Company, priority 1991, dated 1993)", "assay_type_in_all_cases": "cell-based, human", "key": {"MCF-7/ADR": {"test_system": "MCF-7/ADR", "assay": "Cytotoxic assay, MDR reversing effect with Adriamycin in resistant breast carcinoma cells", "protocol": "(§1) Cell Culture: HCT116/VM46 cells were selected from human colon carcinoma HCT116 cell line for resistance to VM26 and MCF-7/ADR cells were selected from human breast carcinoma MCF-7 cell line for resistance to Adriamycin. […] The cell lines were grown in tissue culture flasks containing McCoy's 5A medium and 10% fetal bovine serum. Cells were maintained at 37°C in a humidified atmosphere containing 5% C02 and subcultured every 5 days.\n(§2) Cytotoxic Assay: The cells were seeded in 96 well microtiter plates at 5x10^3 cells per well and allowed to grow for 24 hours at 37 °C. Cells were then incubated with decreasing amounts of antitumor agents: Adriamycin (100 µM, maximal concentration) or actinomycin D (17.6 ng/ml), for MCF-7 and HCT-116 cells, respectively. Chemosensitizers were added at variable concentrations ranging from 0.08 µM to […]. In parallel, verapamil was used as positive control at the same concentrations. After 48 hours of incubation, the cells were washed, fixed and stained with crystal violet. Absorbance was read by Molecular Devices' microtiter plate reader at the wavelength of 595nm. The IC50 value (50% inhibition of cell growth) was determined from relative survival rates resulted from two to three independent experiments. The term \"fold resistance\" was defined as the ratio of the IC50 for antitumor drug in the presence or absence of chemosensitizer in resistant cells divided by the IC50 for antitumor drug in its sensitive counterpart. This value provides an estimate of the apparent potency of each reversing agent in enhancing drug effect."}, "HCT-116/VM46": {"test_system": "HCT-116/VM46", "assay": "Cytotoxic assay, MDR reversing effect with actinomycin D in resistant colon carcinoma cells", "protocol": "as §1, §2"}, "HCT116": {"test_system": "HCT116", "assay": "Cytotoxic assay, actinomycin D in sensitive colon carcinoma cells", "conditions": "no chemosensitizer", "protocol": "as §1\nas §2, with “The term \"fold resistance\" was defined as the ratio of the IC50 for antitumor drug in the presence or absence of chemosensitizer in resistant cells divided by the IC50 for antitumor drug in its sensitive counterpart. This value provides an estimate of the apparent potency of each reversing agent in enhancing drug effect.” left out"}, "[1]": {"conditions": "ActD IC50 in HCT-116/VM46 with chemosensitizer 0.4 μM divided by ActD IC50 in sensitive HCT116"}, "[2]": {"conditions": "ADR IC50 in MCF-7/ADR with chemosensitizer 0.67 µM divided by ADR IC50 in sensitive MCF-7"}}, "note": "Starred links: 1 amine or outer side, 2 acyl side, 3 side chain; linkers in the order of their positions; H or OH if unused. Positions of bridges follow the written chain, without caps; N, C: chain ends. Non-standard residues stand in square brackets, D forms with d. Residues, ends and D or L forms follow the SMILES beside them. Chains are numbered I, II in the order given. Actinocin(9to1) = Cc1c2oc3c(C)ccc(C(=O)[*:1])c3nc-2c(C(=O)[*:2])c(N)c1=O; NMeV = CN[C@H](C(=O)O)C(C)C; Sar = CNCC(=O)O", "data": [{"smiles": "COc1cccc2c1C(=O)c1c(O)c3c(c(O)c1C2=O)C[C@@](O)(C(=O)CO)C[C@@H]3O[C@H]1C[C@H](N)[C@H](O)[C@H](C)O1", "note": "[ADR, Adriamycin]", "values": [{"measurement": "IC50", "setting": "MCF-7/ADR; Homo sapiens, NCI/ADR-RES, 48 h, MCF-7/ADR cells, no chemosensitizer", "result": 50, "unit": "µM"}, {"measurement": "Fold Resistance", "setting": "MCF-7/ADR; MCF-7/ADR versus MCF-7, ADR, no chemosensitizer", "result": 138.9}]}, {"smiles": "Cc1c2oc3c(C)ccc(C(=O)N[C@@H]4C(=O)N[C@H](C(C)C)C(=O)N5CCC[C@H]5C(=O)N(C)CC(=O)N(C)[C@@H](C(C)C)C(=O)O[C@@H]4C)c3nc-2c(C(=O)N[C@@H]2C(=O)N[C@H](C(C)C)C(=O)N3CCC[C@H]3C(=O)N(C)CC(=O)N(C)[C@@H](C(C)C)C(=O)O[C@@H]2C)c(N)c1=O", "note": "[ActD, Actinomycin D] (I: T[dV]P[Sar][NMeV] / II: T[dV]P[Sar][NMeV]; ester I:1-I:C, II:1-II:C; linker I:N-II:N via Actinocin(9to1))", "values": [{"measurement": "ActD IC50", "setting": "HCT-116/VM46; HCT-116/VM46 cells, no chemosensitizer", "result": 10, "unit": "ng/mL"}, {"measurement": "Fold Resistance", "setting": "HCT-116/VM46; HCT-116/VM46 versus HCT116, ActD, no chemosensitizer", "result": 20.0}, {"measurement": "ActD IC50", "setting": "HCT116", "result": 0.5, "unit": "ng/mL"}]}, {"smiles": "CCN(CC)CCN(C(=O)c1cc(Cl)c(N)cc1Oc1ccc(C(F)(F)F)cc1[N+](=O)[O-])c1ccc(C(F)(F)F)cc1[N+](=O)[O-]", "note": "[Ia]", "values": [{"measurement": "Fold Resistance", "setting": "HCT-116/VM46; [1]", "result": 11.0}]}, {"smiles": "CCN(CC)CCNC(=O)c1cc(Cl)c(N)cc1OCCCc1ccccc1", "note": "[Ic, 4-Amino-5-chloro-N-[2-(diethylamino)ethyl]-2-[3-(phenyl)pronoxy]benzamide]", "values": [{"measurement": "Fold Resistance", "setting": "HCT-116/VM46; [1]", "result": 9.8}]}, {"smiles": "C/C=C/C(=O)Nc1cc(OCCSc2ccccc2)c(C(=O)NCCN(CC)CC)cc1Cl", "note": "[If, 5-Chloro-4-crotonylamino-N-[2-(diethylamino)ethyl]-2-[2-(phenylthio)ethoxy]benzamide]", "values": [{"measurement": "Fold Resistance", "setting": "HCT-116/VM46; [1]", "result": 4.8}, {"measurement": "Fold Resistance", "setting": "MCF-7/ADR; [2]", "result": 28.6}]}, {"smiles": "CCN(CC)CCN(C(=O)c1cc(Cl)c(N)cc1Oc1ccc([N+](=O)[O-])cc1)c1ccc([N+](=O)[O-])cc1", "note": "[Ii, 4-Amino-5-chloro-N-[2-(diethylamino)ethyl]-2-(4-nitrophenoxy)-N-(4-nitrophenyl)benzamide]", "values": [{"measurement": "Fold Resistance", "setting": "HCT-116/VM46; [1]", "result": 9.8}]}, {"smiles": "COc1ccc(CCN(C)CCCC(C#N)(c2ccc(OC)c(OC)c2)C(C)C)cc1OC", "note": "(stereo not drawn) [Verapamil, verapamil]", "values": [{"measurement": "Fold Resistance", "setting": "HCT-116/VM46; [1]", "result": 11.6}, {"measurement": "Fold Resistance", "setting": "MCF-7/ADR; [2]", "result": 63.9}]}]}
